The results in this text go back to PubChem BioAssay (NCI).

Among the test systems are UACC-62 melanoma; A498 renal; HCT-116 colon; OVCAR-4 ovarian; RPMI-8226 leukemia; SK-MEL-5 melanoma; MALME-3M melanoma; CAKI-1 renal.
Assay in all cases: growth of human tumour cells (NCI), 48 h

SMILES strings stand for the structures.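 96-well plates; 48 h exposure; 5 concentrations. Endpoints by linear interpolation between flanking doses. Not reached: highest tested concentration assigned. GI50 = concentration required for 50% inhibition of growth. TGI: concentration producing complete growth inhibition.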

Take `Nc1nc2c(nnn2C2CC(O)C(CO)O2)c(=O)[nH]1` (configuration not stated): the GI50 in the experiment on UACC-62 melanoma was 3.48 µM; in the experiment with A498 renal it was 8.22 µM; with HCT-116 colon, 5.89 µM; in the experiment on OVCAR-4 ovarian it was 11.5 µM; with RPMI-8226 leukemia, 2.65 µM; in the experiment on SK-MEL-5 melanoma it was 14.7 µM. Moreover, the results for the GI50 in the experiment with MALME-3M melanoma and in the experiment with CAKI-1 renal were 5.53 µM and 2.3 µM, respectively. The TGI with UACC-62 melanoma was 36.2 µM; in the experiment with A498 renal, > 48.1 µM; with HCT-116 colon it was > 100 µM; with OVCAR-4 ovarian it was > 100 µM; with RPMI-8226 leukemia, > 100 µM; with SK-MEL-5 melanoma, > 89 µM. Besides, the TGI in the experiment with MALME-3M melanoma and with CAKI-1 renal was > 100 µM each time.

Turning to `COC1(OC)CC2OC1C1N=NN(C(=O)OC(C)(C)C)C21` (configuration not stated), the TGI in the experiment on UACC-62 melanoma, in the experiment with A498 renal, with OVCAR-4 ovarian, in the experiment with RPMI-8226 leukemia, in the experiment on SK-MEL-5 melanoma and in the experiment with MALME-3M melanoma was > 100 µM throughout. In addition, the TGI in the experiment with CAKI-1 renal is > 100 µM.

In the case of `CCOC(=S)SSSC(=S)OCC`, the TGI is > 100 µM with UACC-62 melanoma; > 100 µM in the experiment on A498 renal; 53.7 µM in the experiment on HCT-116 colon; 61.1 µM in the experiment on RPMI-8226 leukemia; > 100 µM in the experiment with SK-MEL-5 melanoma; > 100 µM with MALME-3M melanoma. In the experiment on CAKI-1 renal, the TGI is > 100 µM.

With `NC1=NC(c2ccccc2)CC(c2cc(Cl)ccc2O)=N1` (configuration not stated), the TGI in the experiment with UACC-62 melanoma was found to be 30.4 µM; with A498 renal, 34.5 µM; with HCT-116 colon, 27.6 µM; in the experiment on OVCAR-4 ovarian, 35.8 µM; with RPMI-8226 leukemia it was 41 µM; with MALME-3M melanoma, 38 µM. For the same compound, the TGI in the experiment with CAKI-1 renal worked out at 30.1 µM.

With `O=C(NC12CC3CC(CC(F)(C3)C1)C2)c1ccccc1`, the TGI with UACC-62 melanoma, with A498 renal, in the experiment on HCT-116 colon, in the experiment with RPMI-8226 leukemia and in the experiment on MALME-3M melanoma was > 100 µM in each case.

As to `O=C(Nc1ccc(-c2nc(N3CCOCC3)c3cccn3n2)cc1)Nc1cccnc1`, the GI50 with A498 renal is 0.0475 µM; in the experiment with HCT-116 colon it was 0.041 µM; in the experiment with OVCAR-4 ovarian, 0.118 µM; with RPMI-8226 leukemia, 0.138 µM; in the experiment on SK-MEL-5 melanoma, 0.196 µM; in the experiment on MALME-3M melanoma, 0.082 µM. Moreover, the GI50 with CAKI-1 renal was 0.185 µM. Also, the TGI is 0.328 µM in the experiment with A498 renal; 27.7 µM in the experiment with HCT-116 colon; 1.27 µM with OVCAR-4 ovarian; 1.36 µM in the experiment with RPMI-8226 leukemia; 0.847 µM in the experiment on SK-MEL-5 melanoma; 0.471 µM in the experiment on MALME-3M melanoma. Further, in the experiment on CAKI-1 renal, the TGI is 3.85 µM.

Regarding `O=C1CCC(N2C(=O)c3ccccc3C2=O)C(=O)N1CO` (configuration not stated), the GI50 in the experiment on UACC-62 melanoma is 32.6 µM; in the experiment on A498 renal it was > 100 µM; with HCT-116 colon, 21.2 µM; in the experiment on OVCAR-4 ovarian, > 100 µM; with RPMI-8226 leukemia, 25.1 µM; in the experiment with MALME-3M melanoma, > 100 µM. Further, in the experiment with CAKI-1 renal, the GI50 is 94.7 µM. Further, the TGI is > 100 µM in the experiment on UACC-62 melanoma; > 100 µM with A498 renal; 45.4 µM in the experiment with HCT-116 colon; > 100 µM with OVCAR-4 ovarian; 78.7 µM in the experiment with RPMI-8226 leukemia; > 100 µM in the experiment with MALME-3M melanoma. Also, the TGI in the experiment on CAKI-1 renal was > 100 µM.

For the compound `CCCCCCCC[C@@H](O)CC(=O)N[C@@H](CC(N)=O)C(=O)N[C@@H](CCC(N)=O)C(=O)N[C@@H](CC(=O)c1cc(C)cc(O)c1C(=O)c1c(O)cccc1O)CC(C)C`, the GI50 is 0.317 µM in the experiment on UACC-62 melanoma; 2.29 µM in the experiment on A498 renal; 0.303 µM with HCT-116 colon; 2.07 µM in the experiment with OVCAR-4 ovarian; 0.0926 µM in the experiment with RPMI-8226 leukemia; 0.667 µM in the experiment on MALME-3M melanoma. In the experiment with CAKI-1 renal, the GI50 is 1.51 µM. The TGI in the experiment with UACC-62 melanoma was 1.89 µM; in the experiment on A498 renal it was 7.44 µM; in the experiment on HCT-116 colon, 1.78 µM; in the experiment on OVCAR-4 ovarian, > 100 µM; with RPMI-8226 leukemia, 0.883 µM; in the experiment on MALME-3M melanoma it was > 100 µM. Further, the TGI with CAKI-1 renal is > 100 µM.

Take `Nc1c(-c2ccc(Cl)cc2)[n+]([O-])c2ccccc2[n+]1[O-]`: the TGI with UACC-62 melanoma, with A498 renal, in the experiment with OVCAR-4 ovarian, in the experiment with RPMI-8226 leukemia, with SK-MEL-5 melanoma and in the experiment with MALME-3M melanoma was > 100 µM each time. For the same compound, the TGI with CAKI-1 renal was > 100 µM.

As to `COc1ccc2c(c1)C(=O)c1c-2n(CCCn2ccnc2)c(=O)c2cc([N+](=O)[O-])ccc12`, the GI50 in the experiment on UACC-62 melanoma is < 0.01 µM; in the experiment on A498 renal, < 0.01 µM; in the experiment on RPMI-8226 leukemia, 0.0653 µM; in the experiment with SK-MEL-5 melanoma, < 0.01 µM; in the experiment with MALME-3M melanoma it was < 0.0197 µM; in the experiment on CAKI-1 renal it was < 0.01 µM. For the same compound, the TGI is 0.075 µM in the experiment with UACC-62 melanoma; 0.184 µM in the experiment with A498 renal; > 100 µM in the experiment with OVCAR-4 ovarian; 0.515 µM in the experiment on RPMI-8226 leukemia; < 0.01 µM with SK-MEL-5 melanoma; 10.8 µM in the experiment with MALME-3M melanoma. This compound also returned a TGI with CAKI-1 renal of 0.366 µM.

Turning to `O=C(O)/C=C(\c1nc2ccc([N+](=O)[O-])cc2[nH]1)c1cc(Cl)ccc1O`, the GI50 in the experiment with UACC-62 melanoma is 1.45 µM; with A498 renal it was 2.46 µM; in the experiment with HCT-116 colon, 2.35 µM; with OVCAR-4 ovarian, 2.72 µM; in the experiment on RPMI-8226 leukemia, 1.45 µM; in the experiment with SK-MEL-5 melanoma it was 1.1 µM. In the experiment with MALME-3M melanoma, the GI50 is 1.96 µM. The TGI with UACC-62 melanoma came out at 5.41 µM; in the experiment with A498 renal, 8.7 µM; with HCT-116 colon it was 7.03 µM; with OVCAR-4 ovarian it was 36.6 µM; in the experiment with RPMI-8226 leukemia it was 37.7 µM; in the experiment on SK-MEL-5 melanoma, 4.06 µM. The TGI in the experiment with MALME-3M melanoma was determined as 7.52 µM.

Take `CCCC(=O)OCC1OC(n2cnc3c(=S)nc[nH]c32)C(OC(=O)CCC)C1OC(=O)CCC` (configuration not stated): the GI50 in the experiment on UACC-62 melanoma was 1.91 µM; in the experiment with A498 renal, 33.2 µM; in the experiment on HCT-116 colon, 4 µM; in the experiment on OVCAR-4 ovarian it was 0.802 µM; in the experiment on SK-MEL-5 melanoma, 5.24 µM; with MALME-3M melanoma, 38.5 µM. In addition, the GI50 in the experiment with CAKI-1 renal was 2.51 µM. Moreover, the TGI is > 100 µM with UACC-62 melanoma; > 100 µM in the experiment with A498 renal; > 100 µM with HCT-116 colon; > 100 µM in the experiment on OVCAR-4 ovarian; 62.9 µM with SK-MEL-5 melanoma; > 100 µM with MALME-3M melanoma. Also, the TGI in the experiment on CAKI-1 renal was 23.5 µM.
